This is an account of results in patent US20240400572A1, “COMPOUNDS AND METHODS FOR TREATING CANCERS THAT ARE MGMT DEFICIENT REGARDLESS OF MMR STATUS” (Yale University, priority 2021, published 2024).

Molecules are shown by their SMILES. pIC50: −log10 of the molar value.

In data set [1] the test system is LN229 MGMT−/MMR− intracranial tumors. The experiment in a line: Anti-cancer activity in mice having tumors formed from LN-229 human brain glioblastoma cells. Type of data set: in vivo, mouse. The settings on record: 25 mg/kg PO for 5 days; compared with vehicle, TMZ, or KL50. How it is done:
Mice bearing tumors formed from LN-229 human brain glioblastoma cells were prepared as follows: LN229 MGMT−/MMR− cells stably expressing firefly luciferase (lentivirus-plasmids from Cellomics Technology; PLV-10003) were injected intracranially into mice using a stereotactic injector. For this procedure, 1.5 million LN229 MGMT−/MMR− cells in 5 μl PBS were injected into the brain of the mice subjects, and then the mice were imaged weekly using the IVIS Spectrum In Vivo Imaging System (PerkinElmer) according to the manufacturer's protocol. Images were taken on a weekly basis and acquired 10 min post intraperitoneal injection with d-luciferin (150 mg/kg of animal mass). Tumors were allowed to grow to an average of 1.0×10^8 RLU before randomization of the mice.
Treatments using study compounds were administered PO (oral gavage), with 10% cyclodextrin vehicle control or study compound, according to the indicated treatment regimen. Animals were observed daily, with weekly tumor imaging and body weight measurements. Quantification of BLI flux (photons/sec) was made through the identification of a region of interest (ROI) for each tumor.
Study compounds were administered to mice at a dose of 25 mg/kg PO for 5 days; thereafter no further study compound was administered to the mice.
Statistical analysis of data was performed using GraphPad Prism software. Data was presented as mean±SEM. […]

The test system of the next data set is LN229 MGMT−/MMR− cells. The data set is described as follows: Short-term cell viability assay. Type of data set: cell-based, human. The settings on record: Homo sapiens, LN-229. The protocol:
Short-term Cell Viability Assay. Cells were seeded in 96-well plates at 1000 or 2000 cells/well and allowed to adhere at 23° C. for 60 min and then incubated overnight at 37° C. Cells were treated with indicated concentrations of compounds in triplicate for 4-6 days prior to fixation with 3.7% paraformaldehyde and nuclear staining with 1 μg/mL Hoechst 33342 dye. Cells were imaged on a Cytation 3 imaging reader (BioTek) and quantified using CellProfiler software.
Statistical analysis. Statistical analysis was performed using GraphPad Prism software. Data are presented as mean or median±SD or SEM as indicated. For in vitro short-term growth delay experiments, IC50 values were determined from the nonlinear regression equation, [inhibitor] vs normalized response with variable slope. […]
We synthesized the imidazotetrazine 4a (KL-50) and the triazene 4b (KL-85), as vehicles to deliver 2-fluoroethyl diazonium (4c), and a series of related agents to probe structure-activity relationships in tissue culture (FIG. Z1, D and F). […] We evaluated the cytotoxicity of our compounds in short-term cell viability assays against four isogenic LN229 glioblastoma cell lines engineered to be proficient or deficient in MGMT and/or MMR activity, using short hairpin RNAs (shRNAs) targeting MSH2 (referred to as MGMT+/−, MMR+/− cells hereafter; FIG. ZS2A). […]

The nature of data set [2]: Maximum tolerated dose study. Format: in vivo. How it is done:
Healthy mice were treated with escalating doses of KL-50 (4a) (0, 25, 50, 100, and 200 mg/kg×1 dose), and monitored over time for changes in both weights and hematologic profiles. […] As the main dose limiting systemic toxicity of TMZ (1a) is myelosuppression, we measured complete blood counts for all mice on day 0 before treatment and subsequently on day 7 after drug administration.

Data set [3] deals with O^6-guanine adducts in cellular DNA. Conditions: dose of 20 μM; cited from earlier work.

As to `CNC(=O)c1ncn2c(=O)n(CCF)nnc12` [Compound I-1, 3-(2-fluoroethyl)-N-methyl-4-oxo-3H,4H-imidazo[4,3-d][1,2,3,5]tetrazine-8-carboxamide], the “duration of survival (in words)” value in data set [1] is on record as “longer duration of survival”.

Broadly, the pIC50 is the negative decadic logarithm of the IC50, by convention in mol/L. Read a high pIC50 as a low IC50. As for `NC(=O)c1ncn2c(=O)n(CCF)nnc12` [KL-50, 3-(2-fluoroethyl)-4-oxo-3H,4H-imidazo[4,3-d][1,2,3,5]tetrazine-8-carboxamide], the pIC50 in the data set on LN229 MGMT−/MMR− cells is ~4.70. In data set [2] (200 mg/kg × 1 dose), the “mice observably ill warranting euthanasia” value is reported as “Two of three mice”. Besides, the weight loss entry in data set [2] (100 or 200 mg/kg × 1 dose, regressed to baseline at the end of one week) is recorded as “greater than 10%”. The “toxicity in the remaining cohorts (in words)” value in data set [2] (cohorts below 200 mg/kg × 1 dose) was “no evidence of toxicity”. Moreover, the “complete blood counts (in words)” value in data set [2] (day 7 after drug administration, all cohorts) is listed as “within normal physiological ranges”. Further, the “tolerability (in words)” value in data set [2] (healthy mice, 0, 25, 50, 100, and 200 mg/kg × 1 dose) is “well-tolerated”.

`Cn1nnc2c(C(N)=O)ncn2c1=O` [TMZ, temozolomide, reference compound]: in data set [3], the “O^6MeG (3) adducts per cell” value is 20,600.
